Measured values as given in PMC10272112 (Nature Communications, 2023).
Read-outs that look alike come from different tables or passages of the source.

Key:
Assay type in all cases: binding
[1] = system: HMG20A; experiment: Chemoproteomic competition pulldown assay (co-competed CoREST partner)
Protocol: (§1) To identify proteins directly bound by lipoic acid, we employed a chemoproteomic competition assay. Briefly, (R/S)-LA was immobilized on sepharose beads via an amidation reaction to form an affinity matrix (abbreviated as iL; Fig. 1a). This affinity matrix can be incubated with cell lysate to pull down potential LA or LM target proteins and identify these targets via bottom-up proteomics. In a competition assay, free LA or LM were incubated with lysate at different concentrations before pulling down and quantifying target proteins. […] (Fig. 1b, see “Methods” for details). […] The lysate buffer used in this assay contains 1 mM DTT to mimic the intracellular reductive milieu and to reduce lipoic acid and LM. […] Additional competition assays performed in lung adenocarcinoma cell A549 lysate also identified HDAC1, HDAC2, and HDAC6 as targets (Supplementary Fig. 1b). Amongst the three cell lines tested, HDACs were the only confidently identified targets across the 1500–3000 proteins quantified in these assays. […] We validated the results by analogous pulldown competition assays using two other affinity matrices prepared via the immobilization of either the HDAC inhibitor Quisinostat (iQ) and an analog of the class IIa HDAC inhibitor Bürli’s 31[14] (iC)[12]. We have previously shown that these affinity matrices specifically bind to the active sites of HDACs and have used them for HDACi selectivity profiling. Indeed, binding of (R/S)-LA and (R/S)-LM to HDAC1, HDAC2, HDAC3, HDAC6, and, to a lesser extent, HDAC8 was confirmed in these assays (Supplementary Fig. 1c, d). No binding to class IIa HDACs or the recently discovered common HDAC inhibitor off-target MBLAC2 was observed (Supplementary Fig. 1e)[12]. […] This observation might reflect electrostatic repulsion between the HDAC10 active site gate-keeper glutamic acid residues[15],[16] and the terminal carboxylic acid of LA.
(§2) To assess the degree of protein depletion from lysates by the affinity matrix, a second pulldown (PDPD) with fresh beads was performed using the unbound protein fraction from the vehicle control flow through. The beads were washed (1 × 1 mL of lysis buffer without inhibitors and only 0.4% Igepal, 2 × 2 mL of lysis buffer without inhibitors and only 0.2% Igepal), and captured proteins were denatured with 8 M urea buffer, alkylated with 55 mM chloroacetamide and digested with Trypsin according to standard procedures. The resulting peptides were desalted on a C18 filter plate (Sep-Pak® tC18 µElution Plate, Waters), vacuum dried, and stored at −20 °C until LC–MSMS measurement.
(§3) For the competition assays, relative binding was calculated based on the protein intensity ratio to the DMSO control for every single inhibitor concentration. EC50 values were derived from a four-parameter log-logistic regression with variable slope (constrain: bottom > 0). The obtained EC50 values were multiplied with a protein-dependent correction factor (cf), resulting in the apparent Kd value (Kd^app). The correction factor is determined by calculating the ratio of the protein intensity of two consecutive pulldowns of the vehicle control sample[13]. Targets of the inhibitors were annotated manually according to published procedures[12],[46],[47]. […] Additionally, the number of unique peptides and MSMS counts per condition were taken into account. Positive target binding across several independent experiments performed with different cell lysates further substantiated our confidence for a true positive drug-target binding event.

[2] = system: KDM1A; experiment: as above
Protocol: as §1, §2, §3

[3] = system: RCOR1; experiment: as above
Protocol: as §1, §2, §3

[4] = system: RCOR3; experiment: as above
Protocol: as §1, §2, §3

[5] = biological target: HDAC1 (Homo sapiens, UniProt Q13547); experiment: Chemoproteomic competition pulldown assay; set-up: endogenous in cells; host or cells: SW620, MV4-11, A549 lysates; conditions: for Kd: read-out: pKdapp (converted)
Sequence of HDAC1 (Q13547 whole entry): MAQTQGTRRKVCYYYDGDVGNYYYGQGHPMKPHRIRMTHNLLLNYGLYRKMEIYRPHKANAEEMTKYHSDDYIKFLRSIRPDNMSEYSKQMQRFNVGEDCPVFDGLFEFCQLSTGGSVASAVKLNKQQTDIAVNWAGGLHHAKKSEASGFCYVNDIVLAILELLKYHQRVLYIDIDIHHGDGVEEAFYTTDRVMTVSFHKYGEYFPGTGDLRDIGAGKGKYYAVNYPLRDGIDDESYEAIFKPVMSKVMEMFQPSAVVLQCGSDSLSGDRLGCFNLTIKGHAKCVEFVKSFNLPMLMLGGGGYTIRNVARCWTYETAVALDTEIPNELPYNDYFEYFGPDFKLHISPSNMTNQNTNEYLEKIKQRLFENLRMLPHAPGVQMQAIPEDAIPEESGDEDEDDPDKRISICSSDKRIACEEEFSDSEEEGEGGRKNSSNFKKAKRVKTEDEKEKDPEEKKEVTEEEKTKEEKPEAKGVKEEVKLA
Protocol: as §1, §2, §3

[6] = iL, A549 lysate, log10 M -4.52288
[7] = iL, A549 lysate, log10 M -5.52288
[8] = iL, A549 lysate, log10 M -6.52288
[9] = iL, A549 lysate, log10 M -7.52288
[10] = iL, A549 lysate, log10 M -8.52288
[11] = iQ, SW620 lysate, log10 M -3.52288
[12] = iQ, SW620 lysate, log10 M -4.52288
[13] = iQ, SW620 lysate, log10 M -5.52288
[14] = iQ, SW620 lysate, log10 M -6.52288
[15] = iL, SW620 lysate, log10 M -3.52288
[16] = iL, SW620 lysate, log10 M -4.52288
[17] = iL, SW620 lysate, log10 M -5.52288
[18] = iL, SW620 lysate, log10 M -6.52288

## O=C(O)CCCCC1CCSS1 (racemic) [(R/S)-LA, (R/S)-lipoic acid]
[1]; iL, A549 lysate, log10 M -4
  relative binding vs DMSO: 0
[1]; [6]
  relative binding vs DMSO: 0
[1]; iL, A549 lysate, log10 M -5
  relative binding vs DMSO: 0
[1]; [7]
  relative binding vs DMSO: 0.4211
[1]; iL, A549 lysate, log10 M -6
  relative binding vs DMSO: 0.8299
[1]; [8]
  relative binding vs DMSO: 0.9993
[1]; [9]
  relative binding vs DMSO: 1.185
[1]; iL, A549 lysate, log10 M -8
  relative binding vs DMSO: 1.321
[1]; [10]
  relative binding vs DMSO: 1.259
[1]; [11]
  relative binding vs DMSO: 0.2638
[1]; iQ, SW620 lysate, log10 M -4
  relative binding vs DMSO: 0.07541
[1]; [12]
  relative binding vs DMSO: 0.5511
[1]; iQ, SW620 lysate, log10 M -5
  relative binding vs DMSO: 0.4652
[1]; [13]
  relative binding vs DMSO: 0.8795
[1]; iQ, SW620 lysate, log10 M -6
  relative binding vs DMSO: 0.793
[1]; [14]
  relative binding vs DMSO: 1.133
[1]; iQ, SW620 lysate, log10 M -7
  relative binding vs DMSO: 0.8444
[2]; iL, A549 lysate, log10 M -4
  relative binding vs DMSO: 0.08234
[2]; [6]
  relative binding vs DMSO: 0.1175
[2]; iL, A549 lysate, log10 M -5
  relative binding vs DMSO: 0.1963
[2]; [7]
  relative binding vs DMSO: 0.3595
[2]; iL, A549 lysate, log10 M -6
  relative binding vs DMSO: 0.6514
[2]; [8]
  relative binding vs DMSO: 1.056
[2]; [9]
  relative binding vs DMSO: 0.9439
[2]; iL, A549 lysate, log10 M -8
  relative binding vs DMSO: 1.171
[2]; [10]
  relative binding vs DMSO: 1.264
[2]; [15]
  relative binding vs DMSO: 0
[2]; iL, SW620 lysate, log10 M -4
  relative binding vs DMSO: 0
[2]; [16]
  relative binding vs DMSO: 0
[2]; iL, SW620 lysate, log10 M -5
  relative binding vs DMSO: 0.08571
[2]; [17]
  relative binding vs DMSO: 0.9092
[2]; iL, SW620 lysate, log10 M -6
  relative binding vs DMSO: 1.31
[2]; [18]
  relative binding vs DMSO: 1.608
[2]; iL, SW620 lysate, log10 M -7
  relative binding vs DMSO: 1.68
[2]; [11]
  relative binding vs DMSO: 0.1418
[2]; iQ, SW620 lysate, log10 M -4
  relative binding vs DMSO: 0.1346
[2]; [12]
  relative binding vs DMSO: 0.3513
[2]; iQ, SW620 lysate, log10 M -5
  relative binding vs DMSO: 0.5517
[2]; [13]
  relative binding vs DMSO: 0.6829
[2]; iQ, SW620 lysate, log10 M -6
  relative binding vs DMSO: 0.6182
[2]; [14]
  relative binding vs DMSO: 0.6303
[2]; iQ, SW620 lysate, log10 M -7
  relative binding vs DMSO: 0.7048
[3]; iL, A549 lysate, log10 M -4
  relative binding vs DMSO: 0.04582
[3]; [6]
  relative binding vs DMSO: 0.0556
[3]; iL, A549 lysate, log10 M -5
  relative binding vs DMSO: 0.1265
[3]; [7]
  relative binding vs DMSO: 0.344
[3]; iL, A549 lysate, log10 M -6
  relative binding vs DMSO: 0.6862
[3]; [8]
  relative binding vs DMSO: 1.238
[3]; [9]
  relative binding vs DMSO: 0.8815
[3]; iL, A549 lysate, log10 M -8
  relative binding vs DMSO: 1.065
[3]; [10]
  relative binding vs DMSO: 1.673
[3]; [15]
  relative binding vs DMSO: 0
[3]; iL, SW620 lysate, log10 M -4
  relative binding vs DMSO: 0
[3]; [16]
  relative binding vs DMSO: 0.2767
[3]; iL, SW620 lysate, log10 M -5
  relative binding vs DMSO: 0.2629
[3]; [17]
  relative binding vs DMSO: 0.4301
[3]; iL, SW620 lysate, log10 M -6
  relative binding vs DMSO: 0.8481
[3]; [18]
  relative binding vs DMSO: 1.192
[3]; iL, SW620 lysate, log10 M -7
  relative binding vs DMSO: 0.8783
[3]; [11]
  relative binding vs DMSO: 0.1176
[3]; iQ, SW620 lysate, log10 M -4
  relative binding vs DMSO: 0.1659
[3]; [12]
  relative binding vs DMSO: 0.5043
[3]; iQ, SW620 lysate, log10 M -5
  relative binding vs DMSO: 0.4267
[3]; [13]
  relative binding vs DMSO: 0.9917
[3]; iQ, SW620 lysate, log10 M -6
  relative binding vs DMSO: 1.001
[3]; [14]
  relative binding vs DMSO: 0.9723
[3]; iQ, SW620 lysate, log10 M -7
  relative binding vs DMSO: 0.6892
[4]; iL, A549 lysate, log10 M -4
  relative binding vs DMSO: 0
[4]; [6]
  relative binding vs DMSO: 0
[4]; iL, A549 lysate, log10 M -5
  relative binding vs DMSO: 0
[4]; [7]
  relative binding vs DMSO: 0
[4]; iL, A549 lysate, log10 M -6
  relative binding vs DMSO: 0.7701
[4]; [8]
  relative binding vs DMSO: 1.109
[4]; [9]
  relative binding vs DMSO: 1.217
[4]; iL, A549 lysate, log10 M -8
  relative binding vs DMSO: 1.199
[4]; [10]
  relative binding vs DMSO: 1.533
[4]; [11]
  relative binding vs DMSO: 0.06142
[4]; iQ, SW620 lysate, log10 M -4
  relative binding vs DMSO: 0.2749
[4]; [12]
  relative binding vs DMSO: 0.55
[4]; iQ, SW620 lysate, log10 M -5
  relative binding vs DMSO: 0.4741
[4]; [13]
  relative binding vs DMSO: 0.7307
[4]; iQ, SW620 lysate, log10 M -6
  relative binding vs DMSO: 0.7404
[4]; [14]
  relative binding vs DMSO: 0.7642
[4]; iQ, SW620 lysate, log10 M -7
  relative binding vs DMSO: 0.7542
[5]; iL, A549
  Kd: 1 µM
[5]; iL, A549 lysate, log10 M -4
  relative binding vs DMSO: 0.3621
[5]; [6]
  relative binding vs DMSO: 0.1828
[5]; iL, A549 lysate, log10 M -5
  relative binding vs DMSO: 0.2687
[5]; [7]
  relative binding vs DMSO: 0.5244
[5]; iL, A549 lysate, log10 M -6
  relative binding vs DMSO: 0.7392
[5]; [8]
  relative binding vs DMSO: 0.8303
[5]; [9]
  relative binding vs DMSO: 1.235
[5]; iL, A549 lysate, log10 M -8
  relative binding vs DMSO: 1.138
[5]; [10]
  relative binding vs DMSO: 1.054
[5]; iL, SW620
  Kd: 7.94 µM
[5]; [15]
  relative binding vs DMSO: 0.1153
[5]; iL, SW620 lysate, log10 M -4
  relative binding vs DMSO: 0.1408
[5]; [16]
  relative binding vs DMSO: 0.5904
[5]; iL, SW620 lysate, log10 M -5
  relative binding vs DMSO: 0.9976
[5]; [17]
  relative binding vs DMSO: 0.8296
[5]; iL, SW620 lysate, log10 M -6
  relative binding vs DMSO: 0.9942
[5]; [18]
  relative binding vs DMSO: 0.9252
[5]; iL, SW620 lysate, log10 M -7
  relative binding vs DMSO: 1.135
[5]; iQ, SW620
  Kd: 25.1 µM
[5]; [11]
  relative binding vs DMSO: 0.2247
[5]; iQ, SW620 lysate, log10 M -4
  relative binding vs DMSO: 0.2525
[5]; [12]
  relative binding vs DMSO: 0.6007
[5]; iQ, SW620 lysate, log10 M -5
  relative binding vs DMSO: 0.7446
[5]; [13]
  relative binding vs DMSO: 0.8354
[5]; iQ, SW620 lysate, log10 M -6
  relative binding vs DMSO: 0.8396
[5]; [14]
  relative binding vs DMSO: 0.9165
[5]; iQ, SW620 lysate, log10 M -7
  relative binding vs DMSO: 0.8126
